# Test results taken from US11963995B2, “Methods comprising desmopressin” (Ferring B.V., priority 2008, dated 2024).
# Key:
# [1] = relative to vasopressin; cited from earlier work
# [2] = system: adult patients with nocturia; assay: Duration of total sleep time, change from baseline to Day 28 (Part I); type: in vivo, human; conditions: final visit (Day 28)
# Protocol: (§1) All treatments were administered orally once per night approximately 1 hour prior to bedtime; subjects were instructed to limit their fluid intake prior to drug self-administration. […] Randomization was to be stratified by age (<65, ≥65 years) and by the absence/presence of nocturnal polyuria, defined as a ratio of nighttime urine volume/24-hour urine volume 33%. To achieve the desired number of subjects within each stratum, enrollment of subjects in a particular stratum (age and/or presence/absence of nocturnal polyuria) could be halted. If this was necessary, all investigative sites were to be informed in writing at least 1 week in advance to stop screening in a population of subjects.
# The secondary efficacy endpoints were: (1) durability of effect achieved in Part I; (2) change in initial period of undisturbed sleep, defined as the elapsed time in minutes from going to bed with the intention of sleeping to the time of awakening for the first nocturnal void; and (3) change in duration of total sleep time. Additional secondary endpoints were collected, e.g., change in nocturia-specific quality of life as assessed by scores on the International Consultation on Incontinence Modular Questionnaire—Noctuira and the Noctuira Quality of Life Questionnaire, change in quality of sleep as assessed by the global score of the Pittsburgh Sleep Quality Index, and change in overall quality of life as assessed by the short form—12v2. A description of the additional secondary efficacy endpoints and their accompanying data are not provided herein.
# Total sleep time increased in all treatment groups in Part I; however, no pattern was observed by dose of desmopressin. Based on F-tests of effects, computed overall sleep duration and reported overall sleep duration were statistically significant predictors of change from baseline to Day 28 in total sleep time (p<0.0001).
# [3] = system: adult patients with nocturia; assay: Change in urine volume (nocturnal, total) from baseline to Day 28 (Part I); type: in vivo, human; conditions: for median decrease of nocturnal urine volume compared to baseline before treatment: Day 28; for Change from baseline to final visit (Day 28) of nocturnal urine volume, mean / Change from baseline to final visit (Day 28) of nocturnal urine volume, median: ITT, Part I
# Protocol: As used herein, the term “nocturnal urine” refers to the total urine volume from 5 minutes after bedtime until rising in the morning, including the first void within 30 minutes of rising.
# as §1
# Changes in urine volume from baseline to the end of Day 28 were also assessed and included herein.
# Missing values concerning number of nocturnal voids at Day 8, Day 15, Day 22, and Day 28 in Part I were imputed using last observation carried forward (LOCF). Missing values concerning sleep disturbance and urine volume (for average 24-hour urine volume and average nocturnal urine volume) were not imputed.
# [4] = 10 ug, females over 50 years of age
# [5] = 25 ug, females over 50 years of age
# [6] = 50 ug, females over 50 years of age
# [7] = 100 ug, females over 50 years of age
# [8] = all males with monitoring, 10 ug dose
# [9] = all males with monitoring, 25 ug dose
# [10] = all males with monitoring, 50 ug dose
# [11] = all males with monitoring, 100 ug dose
smiles,measurement,setting,value
NC(=O)CC[C@@H]1NC(=O)[C@H](Cc2ccccc2)NC(=O)[C@H](Cc2ccc(O)cc2)NC(=O)CCSSC[C@@H](C(=O)N2CCC[C@H]2C(=O)N[C@H](CCCN=C(N)N)C(=O)NCC(N)=O)NC(=O)[C@H](CC(N)=O)NC1=O [desmopressin],"antidiuretic-to-vasopressor ratio, greater than vasopressin",[1],3000 fold
same,"Total Sleep Time, Calculated Sleep Time, Change from Baseline, Mean",[2]; 10 μg,9.7 min
same,"Total Sleep Time, Calculated Sleep Time, Change from Baseline, Median",[2]; 10 μg,10.0 min
same,"Total Sleep Time, Reported Sleep Time, Change from Baseline, Mean",[2]; 10 μg,7.8 min
same,"Total Sleep Time, Reported Sleep Time, Change from Baseline, Median",[2]; 10 μg,10.0 min
same,"Total Sleep Time, Calculated Sleep Time, Change from Baseline, Mean",[2]; 25 μg,19.7 min
same,"Total Sleep Time, Calculated Sleep Time, Change from Baseline, Median",[2]; 25 μg,15.3 min
same,"Total Sleep Time, Reported Sleep Time, Change from Baseline, Mean",[2]; 25 μg,15.9 min
same,"Total Sleep Time, Reported Sleep Time, Change from Baseline, Median",[2]; 25 μg,10.0 min
same,"Total Sleep Time, Calculated Sleep Time, Change from Baseline, Mean",[2]; 50 μg,24.2 min
same,"Total Sleep Time, Calculated Sleep Time, Change from Baseline, Median",[2]; 50 μg,14.2 min
same,"Total Sleep Time, Reported Sleep Time, Change from Baseline, Mean",[2]; 50 μg,24.9 min
same,"Total Sleep Time, Reported Sleep Time, Change from Baseline, Median",[2]; 50 μg,20.0 min
same,"Total Sleep Time, Calculated Sleep Time, Change from Baseline, Mean",[2]; 100 μg,9.7 min
same,"Total Sleep Time, Calculated Sleep Time, Change from Baseline, Median",[2]; 100 μg,12.0 min
same,"Total Sleep Time, Reported Sleep Time, Change from Baseline, Mean",[2]; 100 μg,19.0 min
same,"Total Sleep Time, Reported Sleep Time, Change from Baseline, Median",[2]; 100 μg,20.0 min
same,median decrease of nocturnal urine volume compared to baseline before treatment,"[3]; 10 μg, all females",179 mL
same,"Change from baseline to final visit (Day 28) of nocturnal urine volume, mean","[3]; 10 ug, all females",-207 mL
same,"Change from baseline to final visit (Day 28) of nocturnal urine volume, median","[3]; 10 ug, all females",-179 mL
same,median decrease of nocturnal urine volume compared to baseline before treatment,"[3]; 10 μg, all groups",150 mL
same,"Change from baseline to final visit (Day 28) of nocturnal urine volume, mean","[3]; 10 ug, all groups",-164 mL
same,"Change from baseline to final visit (Day 28) of nocturnal urine volume, median","[3]; 10 ug, all groups",-150 mL
same,median decrease of nocturnal urine volume compared to baseline before treatment,"[3]; 10 μg, females over 50 years of age",150 mL
same,"Change from baseline to final visit (Day 28) of nocturnal urine volume, mean",[3]; [4],-197 mL
same,"Change from baseline to final visit (Day 28) of nocturnal urine volume, median",[3]; [4],-150 mL
same,median decrease of nocturnal urine volume compared to baseline before treatment,"[3]; 25 μg, all females",298 mL
same,"Change from baseline to final visit (Day 28) of nocturnal urine volume, mean","[3]; 25 ug, all females",-307 mL
same,"Change from baseline to final visit (Day 28) of nocturnal urine volume, median","[3]; 25 ug, all females",-298 mL
same,"Change from baseline to final visit (Day 28) of nocturnal urine volume, mean","[3]; 25 ug, all groups",-224 mL
same,"Change from baseline to final visit (Day 28) of nocturnal urine volume, median","[3]; 25 ug, all groups",-233 mL
same,median decrease of nocturnal urine volume compared to baseline before treatment,"[3]; 25 μg, females over 50 years of age",383 mL
same,"Change from baseline to final visit (Day 28) of nocturnal urine volume, mean",[3]; [5],-356 mL
same,"Change from baseline to final visit (Day 28) of nocturnal urine volume, median",[3]; [5],-383 mL
same,median decrease of nocturnal urine volume compared to baseline before treatment,"[3]; 25 μg, females over 65 years of age",383 mL
same,"Change from baseline to final visit (Day 28) of nocturnal urine volume, mean","[3]; 50 ug, all females",-257 mL
same,"Change from baseline to final visit (Day 28) of nocturnal urine volume, median","[3]; 50 ug, all females",-204 mL
same,"Change from baseline to final visit (Day 28) of nocturnal urine volume, mean","[3]; 50 ug, all groups",-272 mL
same,"Change from baseline to final visit (Day 28) of nocturnal urine volume, median","[3]; 50 ug, all groups",-233 mL
same,"Change from baseline to final visit (Day 28) of nocturnal urine volume, mean",[3]; [6],-249 mL
same,"Change from baseline to final visit (Day 28) of nocturnal urine volume, median",[3]; [6],-196 mL
same,"Change from baseline to final visit (Day 28) of nocturnal urine volume, mean","[3]; 100 ug, all females",-321 mL
same,"Change from baseline to final visit (Day 28) of nocturnal urine volume, median","[3]; 100 ug, all females",-283 mL
same,"Change from baseline to final visit (Day 28) of nocturnal urine volume, mean","[3]; 100 ug, all groups",-312 mL
same,"Change from baseline to final visit (Day 28) of nocturnal urine volume, median","[3]; 100 ug, all groups",-283 mL
same,"Change from baseline to final visit (Day 28) of nocturnal urine volume, mean",[3]; [7],-317 mL
same,"Change from baseline to final visit (Day 28) of nocturnal urine volume, median",[3]; [7],-275 mL
same,median decrease of nocturnal urine volume compared to baseline before treatment,"[3]; 100 μg, males with monitoring",264 mL
same,"Change from baseline to final visit (Day 28) of nocturnal urine volume, mean",[3]; [8],-122 mL
same,"Change from baseline to final visit (Day 28) of nocturnal urine volume, median",[3]; [8],-83 mL
same,"Change from baseline to final visit (Day 28) of nocturnal urine volume, mean",[3]; [9],-146 mL
same,"Change from baseline to final visit (Day 28) of nocturnal urine volume, median",[3]; [9],-167 mL
same,"Change from baseline to final visit (Day 28) of nocturnal urine volume, mean",[3]; [10],-286 mL
same,"Change from baseline to final visit (Day 28) of nocturnal urine volume, median",[3]; [10],-235 mL
same,"Change from baseline to final visit (Day 28) of nocturnal urine volume, mean",[3]; [11],-296 mL
same,"Change from baseline to final visit (Day 28) of nocturnal urine volume, median",[3]; [11],-264 mL
same,"Change from baseline to final visit (Day 28) of nocturnal urine volume, mean","[3]; all males, 10 ug dose",-125 mL
same,"Change from baseline to final visit (Day 28) of nocturnal urine volume, median","[3]; all males, 10 ug dose",-117 mL
same,"Change from baseline to final visit (Day 28) of nocturnal urine volume, mean","[3]; all males, 25 ug dose",-162 mL
same,"Change from baseline to final visit (Day 28) of nocturnal urine volume, median","[3]; all males, 25 ug dose",-200 mL
same,"Change from baseline to final visit (Day 28) of nocturnal urine volume, mean","[3]; all males, 50 ug dose",-286 mL
